Legend:
[1] = biological target: β-Adrenergic β3 (Homo sapiens, UniProt P13945); assay: Receptor binding, β3
[2] = biological target: β-Adrenergic β1 (Homo sapiens, UniProt P08588); assay: Receptor binding, β1
[3] = biological target: Dopamine D2 (Homo sapiens, UniProt P14416); assay: Receptor binding, D2
[4] = biological target: Dopamine D3 (Homo sapiens, UniProt P35462); assay: Receptor binding, D3
[5] = biological target: Serotonin 5-HT1E (Homo sapiens, UniProt P28566); assay: Receptor binding, 5-HT1E
[6] = biological target: Serotonin transporter (Homo sapiens, UniProt P31645); assay: Receptor binding, serotonin transporter
[7] = biological target: Norepinephrine transporter (Homo sapiens, UniProt P23975); assay: Receptor binding, norepinephrine transporter; details: Transporters: Norepinephrine
Sequence of Norepinephrine transporter (P23975 whole entry): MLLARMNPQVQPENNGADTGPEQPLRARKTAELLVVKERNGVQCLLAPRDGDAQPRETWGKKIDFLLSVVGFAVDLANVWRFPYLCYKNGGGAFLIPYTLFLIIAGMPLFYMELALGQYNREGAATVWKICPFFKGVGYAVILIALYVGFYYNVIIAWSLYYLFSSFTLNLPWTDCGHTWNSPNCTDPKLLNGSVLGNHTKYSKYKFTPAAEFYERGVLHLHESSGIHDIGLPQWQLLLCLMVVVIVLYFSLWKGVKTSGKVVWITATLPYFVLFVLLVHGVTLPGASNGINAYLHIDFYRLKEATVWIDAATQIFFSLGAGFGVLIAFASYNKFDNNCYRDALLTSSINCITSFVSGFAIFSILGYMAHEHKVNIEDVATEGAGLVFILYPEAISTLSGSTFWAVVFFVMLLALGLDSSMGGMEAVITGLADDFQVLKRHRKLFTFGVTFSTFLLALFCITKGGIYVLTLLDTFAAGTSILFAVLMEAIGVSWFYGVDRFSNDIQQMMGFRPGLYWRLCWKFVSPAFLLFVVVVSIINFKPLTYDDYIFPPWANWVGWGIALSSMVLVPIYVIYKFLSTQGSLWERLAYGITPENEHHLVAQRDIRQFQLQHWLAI

[8] = biological target: Opioid δ (Homo sapiens, UniProt P41143); assay: Receptor binding, opioid δ
[9] = biological target: T1, Serotonin 5-HT1A (Homo sapiens, UniProt P08908); assay: Receptor binding, 5-HT1A
T1 sequence (P08908 1-422): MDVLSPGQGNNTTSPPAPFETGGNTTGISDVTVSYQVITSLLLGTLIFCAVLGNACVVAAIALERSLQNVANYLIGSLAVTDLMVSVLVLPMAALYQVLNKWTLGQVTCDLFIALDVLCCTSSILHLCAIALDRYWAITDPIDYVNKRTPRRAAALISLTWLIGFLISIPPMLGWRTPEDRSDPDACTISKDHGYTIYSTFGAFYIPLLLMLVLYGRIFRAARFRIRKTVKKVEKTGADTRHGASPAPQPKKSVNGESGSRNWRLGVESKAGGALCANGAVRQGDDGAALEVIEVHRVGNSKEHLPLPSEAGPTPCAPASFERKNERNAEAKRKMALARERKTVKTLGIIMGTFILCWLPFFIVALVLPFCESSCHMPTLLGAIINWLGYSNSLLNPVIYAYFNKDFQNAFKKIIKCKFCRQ

[10] = biological target: Serotonin 5-HT3 (Homo sapiens, UniProt P46098); assay: Receptor binding, 5-HT3
[11] = biological target: Muscarinic M1 (Homo sapiens, UniProt P11229); assay: Receptor binding, M1
Sequence of Muscarinic M1 (P11229 whole entry): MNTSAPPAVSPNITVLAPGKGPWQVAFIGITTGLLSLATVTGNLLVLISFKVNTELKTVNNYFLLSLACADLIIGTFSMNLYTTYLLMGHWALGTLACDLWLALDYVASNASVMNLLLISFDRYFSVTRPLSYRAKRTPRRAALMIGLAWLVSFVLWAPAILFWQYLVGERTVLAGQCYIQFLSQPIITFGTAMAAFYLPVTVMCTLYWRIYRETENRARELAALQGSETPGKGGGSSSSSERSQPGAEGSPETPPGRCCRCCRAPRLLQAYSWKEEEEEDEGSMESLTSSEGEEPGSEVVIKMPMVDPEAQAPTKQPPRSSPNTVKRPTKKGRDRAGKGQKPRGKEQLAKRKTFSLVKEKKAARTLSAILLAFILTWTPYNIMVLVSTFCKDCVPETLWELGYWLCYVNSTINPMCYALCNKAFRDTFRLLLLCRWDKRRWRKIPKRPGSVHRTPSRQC

[12] = biological target: Serotonin 5-HT1D (Homo sapiens, UniProt P28221); assay: Receptor binding, 5-HT1D
Sequence of Serotonin 5-HT1D (P28221 whole entry): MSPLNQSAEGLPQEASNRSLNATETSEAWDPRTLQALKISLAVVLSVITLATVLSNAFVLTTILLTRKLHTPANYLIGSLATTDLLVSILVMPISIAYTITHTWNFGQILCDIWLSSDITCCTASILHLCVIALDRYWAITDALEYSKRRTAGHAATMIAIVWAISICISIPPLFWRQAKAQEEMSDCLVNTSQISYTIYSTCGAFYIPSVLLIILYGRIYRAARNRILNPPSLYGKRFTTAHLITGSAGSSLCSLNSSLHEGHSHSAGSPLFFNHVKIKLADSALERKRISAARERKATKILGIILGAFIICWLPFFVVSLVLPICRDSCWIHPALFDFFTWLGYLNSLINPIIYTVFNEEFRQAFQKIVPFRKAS

[13] = tested on: dopamine receptors; assay: Receptor binding, dopamine receptors; details: any of the dopamine receptors, summary of Table 1
[14] = biological target: Histamine H1 (Homo sapiens, UniProt P35367); assay: Receptor binding, H1; details: H1
Sequence of Histamine H1 (P35367 whole entry): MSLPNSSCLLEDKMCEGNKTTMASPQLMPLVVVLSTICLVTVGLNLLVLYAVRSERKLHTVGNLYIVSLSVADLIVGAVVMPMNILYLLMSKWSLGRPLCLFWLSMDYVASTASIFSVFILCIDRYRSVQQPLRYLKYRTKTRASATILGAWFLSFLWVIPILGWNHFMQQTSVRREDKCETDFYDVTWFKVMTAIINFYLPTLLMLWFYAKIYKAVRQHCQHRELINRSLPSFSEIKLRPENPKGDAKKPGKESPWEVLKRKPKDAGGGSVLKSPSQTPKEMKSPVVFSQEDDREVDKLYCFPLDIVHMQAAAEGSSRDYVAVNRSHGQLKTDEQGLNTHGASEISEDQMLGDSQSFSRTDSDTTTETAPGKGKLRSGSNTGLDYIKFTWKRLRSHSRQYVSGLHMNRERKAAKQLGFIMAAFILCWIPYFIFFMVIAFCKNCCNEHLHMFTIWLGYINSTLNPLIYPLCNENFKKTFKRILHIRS

[15] = biological target: Muscarinic M5 (Homo sapiens, UniProt P08912); assay: Receptor binding, M5
[16] = tested on: rats; assay: Forced swim test (depression model); assay type: in vivo; details: 10 mg/kg i.p., 1 hour before test, versus imipramine 10 mg/kg, FIG. 5
[17] = biological target: Opioid μ (Homo sapiens, UniProt P35372); assay: Receptor binding, opioid μ
Sequence of Opioid μ (P35372 whole entry): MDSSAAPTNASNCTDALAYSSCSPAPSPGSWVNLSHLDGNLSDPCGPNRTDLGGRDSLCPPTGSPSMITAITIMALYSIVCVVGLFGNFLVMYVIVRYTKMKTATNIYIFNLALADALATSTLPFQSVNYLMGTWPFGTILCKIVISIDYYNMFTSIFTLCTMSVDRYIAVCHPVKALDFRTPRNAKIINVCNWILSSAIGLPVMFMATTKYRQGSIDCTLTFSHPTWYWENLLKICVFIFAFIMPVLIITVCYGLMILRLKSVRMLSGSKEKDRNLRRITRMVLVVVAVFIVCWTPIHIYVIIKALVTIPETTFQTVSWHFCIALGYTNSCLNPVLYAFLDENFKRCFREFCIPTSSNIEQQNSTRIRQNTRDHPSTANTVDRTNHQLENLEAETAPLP

[18] = biological target: Opioid κ (Homo sapiens, UniProt P41145); assay: Receptor binding, opioid κ
Sequence of Opioid κ (P41145 whole entry): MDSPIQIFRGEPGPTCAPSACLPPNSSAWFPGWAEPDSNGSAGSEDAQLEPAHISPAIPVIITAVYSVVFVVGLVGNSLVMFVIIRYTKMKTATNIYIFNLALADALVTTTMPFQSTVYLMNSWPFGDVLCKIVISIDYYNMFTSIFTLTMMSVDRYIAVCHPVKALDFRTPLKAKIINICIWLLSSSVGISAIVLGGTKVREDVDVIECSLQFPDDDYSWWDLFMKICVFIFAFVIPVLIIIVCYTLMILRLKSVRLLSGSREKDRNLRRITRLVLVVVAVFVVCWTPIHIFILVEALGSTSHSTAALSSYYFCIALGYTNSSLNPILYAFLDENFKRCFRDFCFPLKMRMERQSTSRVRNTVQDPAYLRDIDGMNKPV

[19] = biological target: Dopamine D1 (Homo sapiens, UniProt P21728); assay: Receptor binding, D1
[20] = biological target: Muscarinic M2 (Homo sapiens, UniProt P08172); assay: Receptor binding, M2
[21] = tested on: rats with a history of chronic meth self-administration; assay: Reinstatement of meth seeking; assay type: in vivo; details: 10 mg/kg i.p. just before reinstatement session (meth priming 1 mg/kg i.p. and cues), FIG. 3
Protocol: DDD-024 was initially tested for effects on the reinstatement of meth seeking in a small pilot group of rats with a history of chronic meth self-administration. […] Rats received a vehicle (10% DMSO) or DDD-024 (10 mg/kg) injection (i.p.) just before each reinstatement session, which consisted of a meth priming injection (1 mg/kg, i.p.) and presentation of meth-associated cues (tone and light) upon each lever press.

[22] = biological target: Serotonin 5-HT7 (Homo sapiens, UniProt P34969); assay: Receptor binding, 5-HT7
Sequence of Serotonin 5-HT7 (P34969 whole entry): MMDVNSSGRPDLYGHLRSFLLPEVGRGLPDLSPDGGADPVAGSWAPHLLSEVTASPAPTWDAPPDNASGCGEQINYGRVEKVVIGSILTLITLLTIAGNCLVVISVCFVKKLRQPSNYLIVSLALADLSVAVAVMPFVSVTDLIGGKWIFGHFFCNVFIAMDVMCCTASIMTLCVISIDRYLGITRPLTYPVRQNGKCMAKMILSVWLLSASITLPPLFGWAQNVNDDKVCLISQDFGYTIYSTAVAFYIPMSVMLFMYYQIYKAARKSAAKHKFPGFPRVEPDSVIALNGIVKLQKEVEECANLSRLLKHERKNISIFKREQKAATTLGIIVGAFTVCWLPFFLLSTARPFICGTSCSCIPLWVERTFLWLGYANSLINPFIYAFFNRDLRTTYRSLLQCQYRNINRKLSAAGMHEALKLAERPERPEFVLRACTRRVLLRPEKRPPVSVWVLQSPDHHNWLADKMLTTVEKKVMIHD

[23] = biological target: Dopamine D4 (Homo sapiens, UniProt P21917); assay: Receptor binding, D4
Sequence of Dopamine D4 (P21917 whole entry): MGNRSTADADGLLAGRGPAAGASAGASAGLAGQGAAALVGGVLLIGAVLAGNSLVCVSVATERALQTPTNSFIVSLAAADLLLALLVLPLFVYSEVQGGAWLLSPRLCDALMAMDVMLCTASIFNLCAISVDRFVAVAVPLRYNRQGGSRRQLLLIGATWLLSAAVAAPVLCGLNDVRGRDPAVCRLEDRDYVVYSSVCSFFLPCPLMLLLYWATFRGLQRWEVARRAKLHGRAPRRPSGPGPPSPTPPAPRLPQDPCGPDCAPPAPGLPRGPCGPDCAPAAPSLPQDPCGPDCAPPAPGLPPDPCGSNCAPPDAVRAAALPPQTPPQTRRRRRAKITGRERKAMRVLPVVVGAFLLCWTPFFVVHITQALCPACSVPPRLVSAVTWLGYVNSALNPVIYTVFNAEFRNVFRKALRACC

[24] = biological target: T2, α-Adrenergic α2A (Homo sapiens, UniProt P08913); assay: Receptor binding, α2A
T2 sequence (P08913 1-465): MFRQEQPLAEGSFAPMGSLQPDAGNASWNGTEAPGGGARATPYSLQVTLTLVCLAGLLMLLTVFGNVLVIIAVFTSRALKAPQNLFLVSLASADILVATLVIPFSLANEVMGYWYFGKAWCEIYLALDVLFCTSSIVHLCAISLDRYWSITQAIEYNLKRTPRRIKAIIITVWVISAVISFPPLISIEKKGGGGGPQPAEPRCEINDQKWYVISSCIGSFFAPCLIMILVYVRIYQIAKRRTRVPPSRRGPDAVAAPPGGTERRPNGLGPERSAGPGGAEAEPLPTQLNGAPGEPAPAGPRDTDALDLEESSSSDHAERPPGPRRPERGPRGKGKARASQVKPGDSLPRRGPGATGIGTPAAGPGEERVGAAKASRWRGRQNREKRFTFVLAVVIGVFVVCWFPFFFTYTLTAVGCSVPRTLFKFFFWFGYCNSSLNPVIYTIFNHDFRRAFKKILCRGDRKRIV

[25] = biological target: Dopamine transporter (Homo sapiens, UniProt Q01959); assay: Receptor binding, dopamine transporter; details: Transporters: Dopamine
Sequence of Dopamine transporter (Q01959 whole entry): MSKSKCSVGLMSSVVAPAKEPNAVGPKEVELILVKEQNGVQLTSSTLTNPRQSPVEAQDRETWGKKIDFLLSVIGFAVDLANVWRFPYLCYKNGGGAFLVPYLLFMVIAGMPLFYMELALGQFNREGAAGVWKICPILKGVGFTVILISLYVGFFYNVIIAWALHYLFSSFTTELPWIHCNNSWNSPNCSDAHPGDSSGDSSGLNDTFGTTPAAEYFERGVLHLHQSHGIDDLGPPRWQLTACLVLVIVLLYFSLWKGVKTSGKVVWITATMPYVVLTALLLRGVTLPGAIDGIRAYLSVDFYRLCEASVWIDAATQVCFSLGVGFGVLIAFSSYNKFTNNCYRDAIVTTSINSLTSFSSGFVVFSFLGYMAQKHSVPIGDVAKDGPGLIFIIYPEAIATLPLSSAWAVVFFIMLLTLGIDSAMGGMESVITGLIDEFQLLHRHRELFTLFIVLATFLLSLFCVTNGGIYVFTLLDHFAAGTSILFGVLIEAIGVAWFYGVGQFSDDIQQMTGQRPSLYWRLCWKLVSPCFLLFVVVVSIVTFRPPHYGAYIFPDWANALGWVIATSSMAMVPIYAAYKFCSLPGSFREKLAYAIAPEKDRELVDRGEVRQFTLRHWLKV

[26] = biological target: Histamine H3 (Homo sapiens, UniProt Q9Y5N1); assay: Receptor binding, H3

Sequence of β-Adrenergic β3 (P13945 whole entry): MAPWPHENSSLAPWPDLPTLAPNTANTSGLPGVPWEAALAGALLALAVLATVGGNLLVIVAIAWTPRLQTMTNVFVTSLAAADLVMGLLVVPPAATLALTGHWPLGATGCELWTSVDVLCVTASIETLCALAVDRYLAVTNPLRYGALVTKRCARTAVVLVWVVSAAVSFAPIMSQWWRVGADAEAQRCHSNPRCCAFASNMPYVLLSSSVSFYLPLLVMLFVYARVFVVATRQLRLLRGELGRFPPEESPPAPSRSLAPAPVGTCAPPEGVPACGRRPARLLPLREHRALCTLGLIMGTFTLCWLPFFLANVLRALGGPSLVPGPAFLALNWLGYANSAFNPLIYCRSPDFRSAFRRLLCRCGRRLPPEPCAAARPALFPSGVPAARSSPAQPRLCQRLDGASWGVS

Ki [1]: > 10000 nM
Ki [2]: > 10000 nM
Ki [3]: > 10000 nM
Ki [4]: > 10000 nM
Ki [5]: > 10000 nM
Ki [6]: 413 nM
Ki [7]: 1950 nM
Ki [8]: 310 nM
Ki [9]: 32 nM
binding, in words ([9]; summary of Table 1): binds strongly
Ki [10]: > 10000 nM
Ki [11]: > 10000 nM
Ki [12]: 385 nM
binding, in words ([12]; summary of Table 1): moderate binding
Ki [14]: 733 nM
Ki [15]: > 10000 nM
Ki [17]: > 10000 nM
Ki [18]: > 10000 nM
Ki [19]: > 10000 nM
Ki [20]: > 10000 nM
Ki ([22]; 5-HT7): 258 nM
binding, in words ([22]; 5-HT7, text summary of Table 1): moderate binding
Ki [23]: > 10000 nM
Ki [24]: 1460 nM
Ki [25]: > 10000 nM
Ki [26]: > 10000 nM
Structure (SMILES): CN1CCc2c(c3cccc4c3n2Cc2ccccc2O4)C1 [Compound 13b]
binding, in words [13]: neither of the two compounds 13a and 13b binds significantly
antidepressive activity (immobility, forced swim test) [16]: comparable to imipramine
number of lever presses (meth seeking behavior) [21]: significantly reduced
